Source: US20060013852A1, “Use of organic compounds” (priority 2002, published 2006)

Tests used:
[1] = system: neointimal lesion formation; assay: rat carotid artery balloon injury model; assay type: in vivo; conditions: local delivery to adventitia via Alzet minipump; early (9 days) and late (21-28 days) post-ballooning
Description: Rat carotid arteries are balloon injured using a method described by Clowes et al. Lab. Invest. 1983; 49; 208-215. […] A P<0.05 is considered statistically significant.

[2] = system: restenotic lesion formation; assay: rabbit iliac stent model; assay type: in vivo, New Zealand White rabbit; conditions: for angiogenic response post-stenting: orally and locally via coated stent, 7 and 28 days post-stenting, vs placebo
Method: A combined angioplasty and stenting procedure is performed in New Zealand White rabbit iliac arteries. Iliac artery balloon injury is performed by inflating a 3.0×9.0 mm angioplasty balloon in the mid-portion of the artery followed by “pull-back” of the catheter for 1 balloon length. Balloon injury is repeated 2 times, and a 3.0×12 mm stent is deployed at 6 atm for 30 seconds in the iliac artery. Balloon injury and stent placement is then performed on the contralateral iliac artery in the same manner. A post-stent deployment angiogram is performed. […] The vascular section between the distal aorta and the proximal femoral arteries is excised and cleaned of periadventitial tissue. The stented section of artery is embedded in plastic and sections are taken from the proximal, middle, and distal portions of each stent. […] The vessel area is measured as the area within the EEL. Data are expressed as mean±SEM. […] A P<0.05 is considered statistically significant.
(§1) 4. […] CYR61, an angiogenic factor, is induced by Angiotensin II (Ang II) in vascular cells and tissue. Likewise, Ang II induces an angiogenic reponse when Angil is delivered locally in mice or rats.

[3] = system: Ang II induced angiogenic response; assay: angiogenic response to locally delivered Ang II; assay type: in vivo; conditions: Ang II delivered locally in mice or rats
Description: as §1

[4] = clinical study of aliskiren in dialysis patients after catheter insertion; assay type: in vivo, human; conditions: aliskiren 100 mg daily for 3 months; observation 6 months
Method: One hundred fifty prospective dialysis patients, who undergo successful insertion of an indwelling, large bore catheter, into a vein are selected for study. […] These drugs are administered for 3 consecutive months following catheter insertion.

Row | Compound | inhibition of neointimal lesions [1] | angiogenic response post-stenting [2] | inhibition of Ang II induced angiogenic response in vivo [3] | prevention or reduction of vascular access dysfunction [4] | mean neointimal thickness ([2]; vs placebo-treated animals) | percent stent stenosis ([2]; vs placebo-treated animals)
1 | COCCCOc1cc(C[C@@H](C[C@H](N)[C@@H](O)C[C@H](C(=O)NCC(C)(C)C(N)=O)C(C)C)C(C)C)ccc1OC [aliskiren, 2(S),4(S),5(S),7(S)-N-(3-amino-2,2-dimethyl-3-oxopropyl)-2,7-di(1-methylethyl)-4-hydroxy-5-amino-8-[4-methoxy-3-(3-methoxy-propoxy)phenyl]-octanamide] | potent inhibition | markedly inhibits | potent inhibition | efficacy | – | –
2 | CCCCC(=O)N(Cc1ccc(-c2ccccc2-c2nnn[nH]2)cc1)[C@H](C(=O)O)C(C)C [valsartan] | potent inhibition | markedly inhibits | potent inhibition | – | reduced | reduced
